What was measured:
Format in all cases: cell-based
human TLR7 = molecular target: T1, human TLR7 (Homo sapiens, UniProt Q9NYK1); assay: TLR7 inhibition reporter assay (HEK-Blue, SEAP); settings: HEK-Blue cells overexpressing human TLR7, gardiquimod 7.5 μM, 22 hour incubation
T1 construct: host or cells: HEK-Blue cells
T1 sequence (Q9NYK1 27-1049): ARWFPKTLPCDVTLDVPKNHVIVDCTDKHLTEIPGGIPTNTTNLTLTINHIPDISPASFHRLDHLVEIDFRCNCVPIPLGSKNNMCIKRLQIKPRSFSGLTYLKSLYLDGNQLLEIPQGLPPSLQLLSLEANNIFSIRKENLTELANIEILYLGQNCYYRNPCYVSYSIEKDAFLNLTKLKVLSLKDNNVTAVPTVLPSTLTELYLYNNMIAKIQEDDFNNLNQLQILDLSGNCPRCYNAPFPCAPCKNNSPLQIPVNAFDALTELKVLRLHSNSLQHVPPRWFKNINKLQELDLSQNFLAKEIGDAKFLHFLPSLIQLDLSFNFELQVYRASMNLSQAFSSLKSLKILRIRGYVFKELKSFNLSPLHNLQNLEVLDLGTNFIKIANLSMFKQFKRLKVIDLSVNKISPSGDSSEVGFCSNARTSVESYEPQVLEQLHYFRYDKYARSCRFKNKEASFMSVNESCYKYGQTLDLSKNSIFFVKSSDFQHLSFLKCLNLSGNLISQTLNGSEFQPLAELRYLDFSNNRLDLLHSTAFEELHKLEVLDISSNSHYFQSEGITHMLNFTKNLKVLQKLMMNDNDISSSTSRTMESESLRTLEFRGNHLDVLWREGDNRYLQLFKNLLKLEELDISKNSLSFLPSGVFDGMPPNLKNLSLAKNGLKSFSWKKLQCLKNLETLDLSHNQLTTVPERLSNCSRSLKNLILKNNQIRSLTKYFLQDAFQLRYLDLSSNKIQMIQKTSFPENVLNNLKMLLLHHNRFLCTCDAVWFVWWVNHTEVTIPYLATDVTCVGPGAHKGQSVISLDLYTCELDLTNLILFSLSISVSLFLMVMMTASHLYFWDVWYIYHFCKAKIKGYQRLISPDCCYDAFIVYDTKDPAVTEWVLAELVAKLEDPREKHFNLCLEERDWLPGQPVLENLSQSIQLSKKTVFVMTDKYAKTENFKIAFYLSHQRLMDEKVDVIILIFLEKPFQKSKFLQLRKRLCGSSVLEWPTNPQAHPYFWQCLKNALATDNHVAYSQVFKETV
Experimental: (§1) TLR7/8/9 Inhibition Reporter Assays
(§2) HEK-Blue™-cells (Invivogen) overexpressing human TLR7, TLR8 or TLR9 receptors were used for screening inhibitors of these receptors using an inducible SEAP (secreted embryonic alkaline phosphatase) reporter gene under the control of the IFN-β minimal promoter fused to five NF-κB and AP-1-binding sites. Briefly, cells are seeded into Greiner 384 well plates (15000 cells per well for TLR7, 20,000 for TLR8 and 25,000 for TLR9) and then treated with test compounds in DMSO to yield a final dose response concentration range of 0.05 nM-50 μM. After a 30 minute compound pre-treatment at room temperature, the cells are then stimulated with a TLR7 ligand (gardiquimod at a final concentration of 7.5 μM), TLR8 ligand (R848 at a final concentration of 15.9 μM) or TLR9 ligand (ODN2006 at a final concentration of 5 nM) to activate NF-κB and AP-1 which induce the production of SEAP. After a 22 hour incubation at 37° C., 5% CO2, SEAP levels are determined with the addition of HEK-Blue™ Detection reagent (Invivogen), a cell culture medium that allows for detection of SEAP, according to manufacturer's specifications. The percent inhibition is determined as the % reduction in the HEK-Blue signal present in wells treated with agonist plus DMSO alone compared to wells treated with a known inhibitor.

human TLR9 = molecular target: T2, human TLR9 (Homo sapiens, UniProt Q9NR96); assay: TLR9 inhibition reporter assay (HEK-Blue, SEAP); settings: HEK-Blue cells overexpressing human TLR9, ODN2006 5 nM, 22 hour incubation
T2 construct: host or cells: HEK-Blue cells
T2 sequence (Q9NR96 26-1032): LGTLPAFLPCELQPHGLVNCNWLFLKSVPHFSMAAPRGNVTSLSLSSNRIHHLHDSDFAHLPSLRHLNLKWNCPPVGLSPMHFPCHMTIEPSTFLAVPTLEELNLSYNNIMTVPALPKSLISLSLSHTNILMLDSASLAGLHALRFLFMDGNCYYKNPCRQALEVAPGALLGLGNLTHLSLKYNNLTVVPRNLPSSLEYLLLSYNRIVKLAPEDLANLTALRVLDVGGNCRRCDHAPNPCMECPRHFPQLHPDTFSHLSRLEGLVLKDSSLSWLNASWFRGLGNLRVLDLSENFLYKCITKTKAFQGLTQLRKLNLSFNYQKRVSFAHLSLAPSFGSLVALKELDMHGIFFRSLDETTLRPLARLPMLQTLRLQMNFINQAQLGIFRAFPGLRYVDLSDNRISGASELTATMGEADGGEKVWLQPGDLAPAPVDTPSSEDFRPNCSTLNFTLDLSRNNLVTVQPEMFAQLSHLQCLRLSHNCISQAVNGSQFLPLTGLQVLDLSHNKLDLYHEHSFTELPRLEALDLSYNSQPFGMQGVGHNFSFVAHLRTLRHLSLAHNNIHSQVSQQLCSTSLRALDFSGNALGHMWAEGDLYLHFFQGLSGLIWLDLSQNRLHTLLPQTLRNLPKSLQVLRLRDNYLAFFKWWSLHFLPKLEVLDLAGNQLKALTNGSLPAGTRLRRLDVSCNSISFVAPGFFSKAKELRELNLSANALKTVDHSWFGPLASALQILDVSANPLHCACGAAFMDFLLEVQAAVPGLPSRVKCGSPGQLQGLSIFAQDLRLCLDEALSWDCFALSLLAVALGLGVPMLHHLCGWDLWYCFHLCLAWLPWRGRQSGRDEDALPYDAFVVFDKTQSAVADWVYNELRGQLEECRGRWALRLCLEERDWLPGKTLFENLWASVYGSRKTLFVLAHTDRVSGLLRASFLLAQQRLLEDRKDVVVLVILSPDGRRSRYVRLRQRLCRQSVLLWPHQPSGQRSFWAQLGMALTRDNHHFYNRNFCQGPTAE
Experimental: as §1, §2

human TLR8 = molecular target: T3, human TLR8 (Homo sapiens, UniProt Q9NR97); assay: TLR8 inhibition reporter assay (HEK-Blue, SEAP); settings: HEK-Blue cells overexpressing human TLR8, R848 15.9 μM, 22 hour incubation
T3 construct: host or cells: HEK-Blue cells
T3 sequence (Q9NR97 27-1041): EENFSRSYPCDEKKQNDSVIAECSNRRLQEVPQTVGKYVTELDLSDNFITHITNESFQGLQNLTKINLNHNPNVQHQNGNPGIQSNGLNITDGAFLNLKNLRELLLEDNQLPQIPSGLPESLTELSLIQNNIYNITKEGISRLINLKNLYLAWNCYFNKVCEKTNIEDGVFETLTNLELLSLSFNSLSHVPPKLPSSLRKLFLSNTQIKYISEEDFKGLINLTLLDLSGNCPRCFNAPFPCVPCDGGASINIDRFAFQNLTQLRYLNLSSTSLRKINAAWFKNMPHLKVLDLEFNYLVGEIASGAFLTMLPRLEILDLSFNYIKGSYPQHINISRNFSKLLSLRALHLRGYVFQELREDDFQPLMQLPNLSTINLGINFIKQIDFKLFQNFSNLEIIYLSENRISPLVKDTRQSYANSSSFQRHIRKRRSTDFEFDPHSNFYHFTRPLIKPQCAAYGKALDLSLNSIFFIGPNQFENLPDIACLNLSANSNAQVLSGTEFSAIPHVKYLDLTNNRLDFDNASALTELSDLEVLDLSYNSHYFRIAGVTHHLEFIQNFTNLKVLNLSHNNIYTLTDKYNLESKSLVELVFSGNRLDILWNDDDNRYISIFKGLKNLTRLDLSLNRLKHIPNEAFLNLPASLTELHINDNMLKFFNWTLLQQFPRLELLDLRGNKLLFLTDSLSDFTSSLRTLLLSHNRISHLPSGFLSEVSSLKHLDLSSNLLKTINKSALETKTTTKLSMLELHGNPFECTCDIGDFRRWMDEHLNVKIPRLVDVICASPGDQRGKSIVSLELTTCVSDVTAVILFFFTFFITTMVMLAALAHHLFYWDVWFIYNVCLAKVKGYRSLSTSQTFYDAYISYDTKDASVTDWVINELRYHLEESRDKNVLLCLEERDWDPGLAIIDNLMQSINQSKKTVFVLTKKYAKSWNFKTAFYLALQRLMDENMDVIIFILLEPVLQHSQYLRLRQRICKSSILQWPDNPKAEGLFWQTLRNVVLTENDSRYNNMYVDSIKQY
Experimental: as §1, §2

IC50 (human TLR7) [nM] | IC50 (human TLR9) [nM] | IC50 (human TLR8) [nM] | SMILES
22.8 | 902 | 140 | CC(C)c1c(-c2ccc3nncn3c2)[nH]c2ccc(C3CCNCC3)cc12 [Example 1, 6-(3-isopropyl-5-(piperidin-4-yl)-1H-indol-2-yl)-[1,2,4]triazolo[4,3-a]pyridine]
4.8 | 528 | 12.5 | Cc1cc(-c2[nH]c3ccc(C4CCNCC4)cc3c2C(C)C)cn2cnnc12 [Example 2, 6-(3-isopropyl-5-(piperidin-4-yl)-1H-indol-2-yl)-8-methyl-[1,2,4]triazolo[4,3-a]pyridine]
27.1 | 340 | 40.7 | Cc1nnc2ccc(-c3[nH]c4ccc(C5CCNCC5)cc4c3C(C)C)cn12 [Example 3, 6-(3-isopropyl-5-(piperidin-4-yl)-1H-indol-2-yl)-3-methyl-[1,2,4]triazolo[4,3-a]pyridine]
56.7 | 2430 | 2340 | Cc1cc2nncn2cc1-c1[nH]c2ccc(C3CCNCC3)cc2c1C(C)C [Example 4, 6-(3-isopropyl-5-(piperidin-4-yl)-1H-indol-2-yl)-7-methyl-[1,2,4]triazolo[4,3-a]pyridine]
154 | 1240 | 133 | Cc1c(-c2[nH]c3ccc(C4CCNCC4)cc3c2C(C)C)ccc2nncn12 [Example 5, 6-(3-isopropyl-5-(piperidin-4-yl)-1H-indol-2-yl)-5-methyl-[1,2,4]triazolo[4,3-a]pyridine]
5.2 | 486 | 18.9 | Cc1cc(-c2[nH]c3ccc(C4CCNCC4)cc3c2C(C)C)cn2c(C)nnc12 [Example 6, 6-(3-isopropyl-5-(piperidin-4-yl)-1H-indol-2-yl)-3,8-dimethyl-[1,2,4]triazolo[4,3-a]pyridine]
156 | 3230 | 1230 | COCc1nnc2ccc(-c3[nH]c4ccc(C5CCNCC5)cc4c3C(C)C)cn12 [Example 7, 6-(3-isopropyl-5-(piperidin-4-yl)-1H-indol-2-yl)-3-(methoxymethyl)-[1,2,4]triazolo[4,3-a]pyridine]
5.2 | 1880 | 29.6 | Cc1c(-c2[nH]c3ccc(C4CCNCC4)cc3c2C(C)C)cn2cnnc2c1C [Example 8, 6-(3-isopropyl-5-(piperidin-4-yl)-1H-indol-2-yl)-7,8-dimethyl-[1,2,4]triazolo[4,3-a] pyridine]
31 | 746 | 11.5 | Cc1cc(-c2[nH]c3ccc(C4CCNCC4)cc3c2C(C)C)c(C)n2cnnc12 [Example 9, 6-(3-isopropyl-5-(piperidin-4-yl)-1H-indol-2-yl)-5,8-dimethyl-[1,2,4] triazolo[4,3-a]pyridine]
4.6 | 3120 | 107 | Cc1c(-c2[nH]c3ccc(C4CCNCC4)cc3c2C(C)C)cn2cnnc2c1Cl [Example 10, 8-chloro-6-(3-isopropyl-5-(piperidin-4-yl)-1H-indol-2-yl)-7-methyl-[1,2,4]triazolo[4,3-a]pyridine]
6.2 | 563 | 74 | COc1cc(-c2[nH]c3ccc(C4CCNCC4)cc3c2C(C)C)cn2cnnc12 [Example 11, 6-(3-isopropyl-5-(piperidin-4-yl)-1H-indol-2-yl)-8-methoxy-[1,2,4]triazolo[4,3-a]pyridine]
1.5 | 1900 | 6.9 | Cc1cc(-c2[nH]c3ccc(C4CCN(CC(=O)N(C)C)CC4)cc3c2C(C)C)cn2cnnc12 [Example 12, 2-(4-(3-isopropyl-2-(8-methyl-[1,2,4]triazolo[4,3-a]pyridin-6-yl)-1H-indol-5-yl)piperidin-1-yl)-N,N-dimethylacetamide]

SMILES | IC50 (human TLR7) [nM] | IC50 (human TLR9) [nM] | IC50 (human TLR8) [nM]
Cc1c(-c2[nH]c3ccc(C4C[C@H]5CC[C@@H](C4)N5CC4(C)COC4)cc3c2C(C)C)cn2cnnc2c1C (single isomer, unassigned) [Example 121] | 3.2 | 4840 | 47.6
Cc1c(-c2[nH]c3ccc(C4C[C@H]5CC[C@@H](C4)N5C4COC4)cc3c2C(C)C)cn2cnnc2c1C (single isomer, unassigned) [Example 122] | 2.3 | 5940 | 98.9
Cc1c(-c2[nH]c3ccc(C4C[C@H]5CC[C@@H](C4)N5C4COC4)cc3c2C(C)C)cn2cnnc2c1C (single isomer, unassigned) [Example 123] | 7.6 | 8480 | 151
